In paper PMC7251097, “Aspartate/asparagine-β-hydroxylase: a high-throughput mass spectrometric assay for discovery of small molecule inhibitors” (Scientific Reports, 2020):
Where a name gives a salt, the structure may show the parent alone. Read-outs that look alike come from different tables or passages of the source.

Target: T1, His6-AspH315–758 (human aspartate/asparagine-β-hydroxylase, AspH) (Homo sapiens, UniProt Q12797)
T1 construct: N-Terminally His6-tagged human AspH315–758 (His6-AspH315–758) was produced in E. coli BL21 (DE3) cells; made in house; host or cells: E. coli BL21 (DE3), pET-28a(+) vector
T1 sequence (Q12797 315-758): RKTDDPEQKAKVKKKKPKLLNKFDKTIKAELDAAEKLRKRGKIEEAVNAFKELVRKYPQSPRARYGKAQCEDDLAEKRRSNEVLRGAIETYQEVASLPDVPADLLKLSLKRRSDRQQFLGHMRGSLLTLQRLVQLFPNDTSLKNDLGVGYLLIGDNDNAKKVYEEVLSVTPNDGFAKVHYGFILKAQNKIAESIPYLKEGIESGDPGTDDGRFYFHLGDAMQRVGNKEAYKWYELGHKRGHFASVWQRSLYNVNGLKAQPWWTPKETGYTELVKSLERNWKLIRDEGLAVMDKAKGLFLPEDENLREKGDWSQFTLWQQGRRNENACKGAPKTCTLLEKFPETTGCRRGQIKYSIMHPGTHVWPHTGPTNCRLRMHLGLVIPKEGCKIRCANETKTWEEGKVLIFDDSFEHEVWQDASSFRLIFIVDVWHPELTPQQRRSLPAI
Experiment: SPE-MS AspH inhibition assay (LOPAC screen at fixed 20 μM and IC50 dose-response), hydroxylation of cyclic peptide hFX-CP101–119
Format: biochemical
Details: for inhibition at 20 µM: AspH activity, fixed compound concentration 20 μM, initial LOPAC screen, 0.5%v/v DMSO, read-out: Inhibition at 20 µM [%]; for Plate 5 (% inhibition) / Plate 5 (% conversion): plate 5 (Pfitzer), test compounds at fixed 20 μM; for Plate 5 (% conversion): mean conversion DMSO 32.88

[1] = LOPAC compound at fixed 20 uM, plate 1, normalised to DMSO and 2,4-PDCA controls
[2] = LOPAC Plate 4, compound at 20 uM, substrate conversion
[3] = LOPAC compound at fixed 20 uM, substrate conversion, plate 1
[4] = LOPAC Plate 4, compound at 20 uM

CN(C)CCC=C1c2ccccc2CCc2ccccc21 [Amitriptyline hydrochloride]
Plate 1 (% conversion): 38.67% | Plate 1 (% inhibition) [1]: -8.33%

N.S=C(S)N1CCCC1 [Ammonium pyrrolidinedithiocarbamate]
% conversion [2]: 37.86%

Clc1ccc2c(c1)C(N1CCNCC1)=Nc1ccccc1O2 [Amoxapine]
Plate 1 (% inhibition) [1]: -8.96% | Plate 1 (% conversion) [3]: 38.88%

COc1cc(NS(C)(=O)=O)ccc1Nc1c2ccccc2nc2ccccc12 [Amsacrine hydrochloride]
Plate 1 (% inhibition) [1]: -10.85% | Plate 1 (% conversion) [3]: 39.52%

N=c1ccn2c(n1)O[C@H]1[C@H](O)[C@@H](CO)O[C@H]12 [Ancitabine hydrochloride]
Plate 1 (% inhibition) [1]: -4.15%

COc1ccc(C(=O)N2CCCC2=O)cc1 [Aniracetam]
Plate 1 (% conversion): 23.49% | Plate 1 (% inhibition): 36.86%

Cl.c1ccc(CN(CC2=NCCN2)c2ccccc2)cc1 [Antozoline hydrochloride]
Plate 1 (% inhibition) [1]: -17.43% | Plate 1 (% conversion) [3]: 41.73%

O=c1cc(-c2ccc(O)cc2)oc2cc(O)cc(O)c12 [Apigenin, reference compound]
inhibition at 20 µM: 95.8% | Plate 1 (% inhibition) [1]: 95.84% | Plate 1 (% conversion) [3]: 3.68%

CN1CCc2cccc3c2[C@H]1Cc1ccc(O)c(O)c1-3 [Apomorphine hydrochloride hemihydrate]
Plate 1 (% inhibition) [1]: 80.27% | Plate 1 (% conversion) [3]: 8.92%

CCN(CC)CCCN(c1ccccc1)C1Cc2ccccc2C1 [Aprindine hydrochloride]
% conversion [2]: 34.60%

Nc1nc2c(ncn2[C@@H]2O[C@H](CO)[C@@H](O)[C@@H]2O)c(=O)[nH]1.O [Ara-G hydrate]
% inhibition [4]: -11.19% | % conversion [2]: 40.29%

NC(N)=NCCCCN=C(N)N [Arcaine sulfate]
Plate 1 (% inhibition) [1]: -5.14% | Plate 1 (% conversion) [3]: 37.60%

C#CCOC(=O)C1=CCCN(C)C1 [Arecaidine propargyl ester hydrobromide]
Plate 1 (% conversion): 37.75% | Plate 1 (% inhibition): -5.59%

COC(=O)C1=CCCN(C)C1 [Arecoline hydrobromide]
Plate 1 (% conversion): 37.04% | Plate 1 (% inhibition): -3.47%

CC1CNc2c(cccc2S(=O)(=O)N[C@@H](CCCNC(=N)N)C(=O)N2CC[C@@H](C)C[C@@H]2C(=O)O)C1 (some centres unmarked) [Argatroban monohydrate]
Plate 1 (% inhibition) [1]: -7.94% | Plate 1 (% conversion) [3]: 38.54%

CO[C@H]1O[C@@H]2O[C@@]3(C)CC[C@H]4[C@H](C)CC[C@@H]([C@H]1C)[C@@]24OO3 [Artemether]
Plate 1 (% inhibition) [1]: -9.16% | Plate 1 (% conversion) [3]: 38.95%

CC1=C(/C=C/C(C)=C/C=C/C(C)=C/C=C/C=C(C)/C=C/C=C(C)/C=C/C2=C(C)C(=O)[C@@H](O)CC2(C)C)C(C)(C)C[C@H](O)C1=O [Astaxanthin]
Plate 1 (% inhibition) [1]: -2.40% | Plate 1 (% conversion) [3]: 36.68%

CC(C)c1c(C(=O)Nc2ccccc2)c(-c2ccccc2)c(-c2ccc(F)cc2)n1CC[C@@H](O)C[C@@H](O)CC(=O)O [Atorvastatin calcium salt trihydrate]
Plate 1 (% inhibition) [1]: 1.55% | Plate 5 (% inhibition): 17.18%

C[N+]1(C)[C@@H]2CC[C@H]1C[C@@H](OC(=O)C(CO)c1ccccc1)C2 (some centres unmarked) [Atropine methyl bromide]
Plate 1 (% inhibition) [1]: -14.40% | Plate 1 (% conversion) [3]: 40.71%

C[N+]1(C)[C@@H]2CC[C@H]1C[C@@H](OC(=O)C(CO)c1ccccc1)C2 (some centres unmarked) [Atropine methyl nitrate]
Plate 1 (% inhibition) [1]: 2.78% | Plate 1 (% conversion) [3]: 34.94%

CN1[C@@H]2CC[C@H]1C[C@@H](OC(=O)C(CO)c1ccccc1)C2 (some centres unmarked) [Atropine sulfate]
Plate 1 (% inhibition): 2.77%

CC(=O)OC[C@H]1O[C@@H]([S-])[C@H](OC(C)=O)[C@@H](OC(C)=O)[C@@H]1OC(C)=O.CCP(CC)CC.[Au+] [Auranofin]
% conversion: 18.61% | % inhibition (20 µM): 52.32%

CC(C)=CCC/C(C)=C/COc1ccc2ccc(=O)oc2c1 [Auraptene]
% conversion [2]: 37.42%

O=C(O)C1=CC(=C(c2ccc(O)c(C(=O)O)c2)c2ccc(O)c(C(=O)O)c2)C=CC1=O [Aurintricarboxylic acid, reference compound]
inhibition at 20 µM: 104% | Plate 1 (% inhibition) [1]: 103.81% | Plate 1 (% conversion) [3]: 1.01%

OC[C@H]1O[C@H]([S-])[C@H](O)[C@@H](O)[C@@H]1O.[Au+] [Aurothioglucose]
Plate 3 (% conversion): 23.41%

CC(C)c1cc(C(C)C)c(CC(=O)NS(=O)(=O)Oc2c(C(C)C)cccc2C(C)C)c(C(C)C)c1 [Avasimibe]
Plate 5 (% inhibition): 73.14% | Plate 5 (% conversion): 11.42%

CCCCCCCCCCCCCCCCCCN(CCCCCCCCCCCCCCCCCC)CCCN(CCO)CCO [Avridine]
% conversion [2]: 28.90% | Plate 5 (% inhibition): 10.21% | Plate 5 (% conversion): 32.84%

CNC(=O)c1ccccc1Sc1ccc2c(/C=C/c3ccccn3)n[nH]c2c1 [Axitinib]
Plate 5 (% inhibition): -7.77% | Plate 5 (% conversion): 38.96%

Cn1cnc([N+](=O)[O-])c1Sc1ncnc2nc[nH]c12 [Azathioprine]
Plate 1 (% inhibition) [1]: -17.98% | Plate 1 (% conversion) [3]: 41.91%

O=C(O)CCCCCCCC(=O)O [Azelaic acid]
Plate 1 (% inhibition) [1]: 11.13% | Plate 1 (% conversion) [3]: 32.14%

CC[C@H]1OC(=O)[C@H](C)[C@@H](O[C@H]2C[C@@](C)(OC)[C@@H](O)[C@H](C)O2)[C@H](C)[C@@H](O[C@@H]2O[C@H](C)C[C@H](N(C)C)[C@H]2O)[C@](C)(O)C[C@@H](C)CN(C)[C@H](C)[C@@H](O)[C@]1(C)O [Azithromycin dihydrate]
Plate 1 (% inhibition) [1]: -13.45% | Plate 1 (% conversion) [3]: 40.39%

CC[C@H]1OC(=O)[C@H](C)[C@@H](O[C@H]2C[C@@](C)(OC)[C@@H](O)[C@H](C)O2)[C@H](C)[C@@H](O[C@@H]2O[C@H](C)C[C@H](N(C)C)[C@H]2O)[C@](C)(O)C[C@@H](C)CN(C)[C@H](C)[C@@H](O)[C@]1(C)O [Azithromycin]
Plate 5 (% inhibition): -3.13% | Plate 5 (% conversion): 37.38%

CCN1CCc2nc(N)oc2CC1.Cl.Cl [B-HT 933 dihydrochloride]
Plate 1 (% inhibition) [1]: -9.80% | Plate 1 (% conversion) [3]: 39.16%

COc1ccc(-c2cc3nccn3c(Nc3ncccc3C(N)=O)n2)cc1OC.Cl.O [BAY 61-3606 hydrochloride hydrate]
% conversion [2]: 33.04%

Nc1ccc(-c2ccc3ccccc3n2)cc1 [BF-170 hydrochloride]
% inhibition [4]: -2.46% | % conversion [2]: 37.31%

CC(=O)O[C@H]1Cc2ccccc2N(C(N)=O)c2ccccc21 [BIA 2-093]
% conversion [2]: 30.46%

COc1cc2nc(N3CCCN(C)CC3)nc(NC3CCN(Cc4ccccc4)CC3)c2cc1OC [BIX 01294 trihydrochloride hydrate]
% inhibition [4]: -9.31% | % conversion [2]: 39.65%

C[C@H](c1ccc(F)cc1CCCC(=O)O)N(c1cc(F)ccc1F)S(=O)(=O)c1ccc(Cl)cc1 [BMS-299897]
% inhibition [4]: -0.66% | % conversion [2]: 36.70%

COc1ccccc1N1CCN(CCN2C(=O)CC3(CCCC3)CC2=O)CC1.Cl.Cl [BMY 7378 dihydrochloride]
Plate 1 (% inhibition) [1]: -11.73% | Plate 1 (% conversion) [3]: 39.81%

COc1ccccc1N1CCN(CCCCNC(=O)c2ccc3ccccc3c2)CC1 [BP 897]
Plate 1 (% inhibition) [1]: -9.00% | Plate 1 (% conversion) [3]: 38.89%

C[C@H](Cc1ccc(OCC(=O)[O-])cc1)NC[C@H](O)c1cccc(Cl)c1.[Na+] [BRL 37344 sodium]
Plate 1 (% inhibition) [1]: 4.03% | Plate 1 (% conversion) [3]: 34.52%

Cc1ccc([N+](=O)[O-])cc1S(=O)(=O)N(C)C [BRL 50481]
Plate 1 (% conversion): 38.84% | Plate 1 (% inhibition): -8.84%

CN1CCC(c2c[nH]c3ccc(O)cc23)CC1.O=C(O)/C=C\C(=O)O [BRL 54443 maleate]
Plate 1 (% conversion): 33.54% | Plate 1 (% inhibition): 6.94%

Cl.c1ccc2sc(C3(N4CCCCC4)CCCCC3)cc2c1 [BTCP hydrochloride]
Plate 1 (% conversion): 41.13% | Plate 1 (% inhibition): -15.64%

N#Cc1cc([N+](=O)[O-])c2sc(C(N)=O)[n+]([O-])c2c1 [BTO-1]
Plate 1 (% inhibition) [1]: -2.18% | Plate 1 (% conversion) [3]: 36.60%

Cl.c1ccc2nc(C3=NCCN3)ccc2c1 [BU224 hydrochloride]
Plate 1 (% inhibition) [1]: -5.25% | Plate 1 (% conversion) [3]: 37.63%

C=CC[N+](C)(C)c1ccc(CCC(=O)CCc2ccc([N+](C)(C)CC=C)cc2)cc1.[Br-].[Br-] [BW 284c51]
Plate 1 (% conversion): 38.38% | Plate 1 (% inhibition): -7.47%

CC(N)Cc1c[nH]c2ccc(OCc3cccs3)cc12 (centres unmarked) [BW 723C86]
Plate 3 (% conversion): 36.52%

CC(/C=C/c1cccc(Oc2ccc(F)cc2)c1)N(O)C(N)=O (centres unmarked) [BWB70C]
Plate 1 (% inhibition) [1]: -3.19% | Plate 1 (% conversion) [3]: 36.94%

Cc1ccc(S(=O)(=O)/C=C/C#N)cc1 [Bay 11-7082]
% conversion [2]: 24.61%

CC(C)(C)c1ccc(S(=O)(=O)/C=C/C#N)cc1 [Bay 11-7085]
Plate 1 (% conversion): 32.72% | Plate 1 (% inhibition): 9.38%
